One may read the IC50 as the point on the concentration scale where inhibition reaches its midpoint.

Series [1] is described as follows: Selectivity index, ratio of IC50 for african green monkey Vero cells to IC50 for chloroquine-resistant Plasmodium falciparum W2. The format is toxicity, cell-based. As to conditions: read-out: Ratio IC50; call rule not given here.
Series [2] can be described thus: Selectivity index, ratio of IC50 for african green monkey Vero cells to IC50 for chloroquine-sensitive Plasmodium falciparum D6. The format is toxicity, cell-based. As to conditions: read-out: Ratio IC50.
Series [3] deals with Plasmodium falciparum. Nature of the series: Antimalarial activity against chloroquine-resistant Plasmodium falciparum W2 infected in RBC assessed as plasmodial LDH activity after 72 hrs. The format is functional, organism-based.
Series [4] deals with Vero. In words: Cytotoxicity against african green monkey Vero cells up to 9 uM after 48 hrs by neutral red assay. The format is cell-based. The note with it: chlorocebus sabaeus.
Series [5] has as its system Plasmodium falciparum. In words: Antimalarial activity against chloroquine-sensitive Plasmodium falciparum D6 infected in RBC assessed as plasmodial LDH activity after 72 hrs. The format is functional, organism-based.
Series [6] has as its system HeLa. In words: Cytotoxicity against human HeLa cells after 48 hrs by MTT assay. The format is functional, cell-based. For orientation: Tetrazolium assays rely on reduction of a dye to a coloured formazan, in cell work by metabolically active cells.
The subject of series [7] is MOLT-4. In words: Cytotoxicity against human MOLT4 cells after 48 hrs by MTT assay. The format is functional, cell-based. The note with it: MOLT-4, 48 h.
The subject of series [8] is DU-145. Nature of the series: Cytotoxicity against human DU145 cells after 48 hrs by MTT assay. The format is functional, cell-based. As to conditions: DU-145, 48 h.
In series [9] the test system is KB. Nature of the series: Cytotoxicity against human KB cells after 48 hrs by MTT assay. The format is functional, cell-based.
The test system of series [10] is PC-3. In words: Cytotoxicity against human PC3 cells after 48 hrs by MTT assay. The note with it: PC-3, 48 h. The format is functional, cell-based.
The mark [11] stands for this setting: Plasmodium falciparum, W2, 72 h, read-out: IC50.
[12] abbreviates: Plasmodium falciparum, D6, 72 h, read-out: IC50.

As to `Cc1nccn1CCOc1ccc(/C=C2\CC/C(=C\c3ccc(OCCn4ccnc4C)cc3)C2=O)cc1`, the values for the selectivity ratio in series [1] and in [2] were more than 21.6 and more than 26.4, respectively. The figures for the IC50 in [3] (setting [11]) and in series [5] (setting [12]) were 430 nM and 350 nM, respectively. In [4], the Activity entry is reported as “Non-toxic”.
Take `O=C1/C(=C/c2ccc(OCCn3ccnc3)cc2)CC/C1=C\c1ccc(OCCn2ccnc2)cc1`: the selectivity ratio in series [1] was more than 26.4; in series [2] it was more than 21.6. Moreover, the IC50 in series [3] (setting [11]) amounted to 370 nM; in [5] (setting [12]), 450 nM. For the same molecule, in series [4], the Activity result is recorded as “Non-toxic”.
As to `COc1cc(/C=C2\CC/C(=C\c3ccc(OCCN4CCCCC4)c(OC)c3)C2=O)ccc1OCCN1CCCCC1`, the selectivity ratio in series [1] was more than 15.4; in [2], more than 16.4. Also, the IC50 was 530 nM in [3] (setting [11]); 400 nM in series [6]; 20 nM in series [7]; more than 5000 nM in series [8]; 4400 nM in series [9]; more than 5000 nM in series [10]. Besides, in series [5] (setting [12]), the IC50 is 500 nM. The Activity entry in [4] is listed as “Non-toxic”.
With `COc1cc(/C=C2\CC/C(=C\c3ccc(OCCCn4ccnc4)c(OC)c3)C2=O)ccc1OCCCn1ccnc1`, the IC50 entry in [3] and in series [5] was “Not Active” throughout. Further, in [4], the Activity entry is listed as “Non-toxic”.
`COc1cc(/C=C2\CC/C(=C\c3ccc(OCCCCN4CCCCCC4)c(OC)c3)C2=O)ccc1OCCCCN1CCCCCC1`: the selectivity ratio was more than 4 in series [1] and more than 5.3 in series [2]. Further, the IC50 is 1820 nM in [3] (setting [11]); 1390 nM in series [6]; 410 nM in [7]; 1010 nM in series [8]; 2250 nM in [9]; 300 nM in series [10]. In series [5] (setting [12]), the IC50 is 1360 nM. The Activity result in series [4] is “Non-toxic”.
Take `COc1cc(/C=C2\CC/C(=C\c3ccc(OCCn4ccnc4)c(OC)c3)C2=O)ccc1OCCn1ccnc1`: the selectivity ratio in series [1] was more than 4.9; in series [2] it was more than 4. In addition, the IC50 in [3] (setting [11]) was determined as 1810 nM; in series [5] (setting [12]), 2210 nM. Further, the Activity entry in series [4] is on record as “Non-toxic”.
In the case of `COc1cc(/C=C2\CC/C(=C\c3ccc(OCCCn4ccnc4C)c(OC)c3)C2=O)ccc1OCCCn1ccnc1C`, the selectivity ratio was more than 2.6 in series [1] and more than 4 in series [2]. In addition, the IC50 stood at 3010 nM in series [3] (setting [11]); 3150 nM in [6]; 660 nM in series [7]; 3900 nM in series [8]; 1990 nM in series [9]; 200 nM in series [10]. Moreover, the IC50 in series [5] (setting [12]) came to 2010 nM. The Activity result in [4] was “Non-toxic”.
Regarding `CN(C)CCCCOc1ccc(/C=C2\CC/C(=C\c3ccc(OCCCCN(C)C)cc3)C2=O)cc1`, the IC50 worked out at 6800 nM in series [6]; 330 nM in series [7]; 4400 nM in series [8]; 1650 nM in [9]; 2900 nM in series [10].
As for `O=C1/C(=C/c2ccc(OCCCCN3CCOCC3)cc2)CC/C1=C\c1ccc(OCCCCN2CCOCC2)cc1`, the IC50 entry in [3] and in series [5] was “Not Active” throughout. In addition, the Activity result in series [4] was “Non-toxic”.
With `COc1cc(/C=C2\CC/C(=C\c3ccc(OCCBr)c(OC)c3)C2=O)ccc1OCCBr`, the IC50 entry in [3] and in [5] was “Not Active” in each case. Further, in [4], the Activity entry is recorded as “Non-toxic”.
On to `COc1cc(/C=C2\CC/C(=C\c3ccc(OCCN4CCOCC4)c(OC)c3)C2=O)ccc1OCCN1CCOCC1`, for which the results for the selectivity ratio in series [1] and in [2] were more than 3.4 and more than 2.6, respectively. The IC50 in series [3] (setting [11]) was determined as 2410 nM; in [5] (setting [12]) it was 3110 nM. Moreover, the Activity result in [4] was “Non-toxic”.
Regarding `CCN(CC)CCCC(C)Nc1ccnc2cc(Cl)ccc12` (configuration not stated) [CHLOROQUINE], in series [4], the Activity result was “Non-toxic”.
On to `COc1cccc2c1C(=O)c1c(O)c3c(c(O)c1C2=O)C[C@@](O)(C(=O)CO)C[C@@H]3O[C@H]1C[C@H](N)[C@H](O)[C@H](C)O1` [DOXORUBICIN], for which the IC50 was determined as 2200 nM in [6], 200 nM in [8], 330 nM in series [9] and 200 nM in series [10].
Regarding `COc1cc(/C=C2\CC/C(=C\c3ccc(OCCn4ccnc4C)c(OC)c3)C2=O)ccc1OCCn1ccnc1C`, the selectivity ratio is more than 6 in [1] and more than 6.5 in [2]. In addition, the IC50 in series [3] (setting [11]) is 1380 nM; in series [6], 900 nM; in series [7], 100 nM; in series [8], more than 5000 nM; in series [9], 3400 nM; in [10] it was more than 5000 nM. The IC50 in series [5] (setting [12]) came to 1280 nM. Besides, in series [4], the Activity entry is given as “Non-toxic”.
On to `COc1cc(/C=C2\CC/C(=C\c3ccc(OCCCCN4CCOCC4)c(OC)c3)C2=O)ccc1OCCCCN1CCOCC1`, for which the selectivity ratio is more than 11.9 in series [1] and more than 10.8 in [2]. Further, the IC50 turned out to be 630 nM in series [3] (setting [11]); 720 nM in [6]; 360 nM in series [7]; 670 nM in [8]; 620 nM in series [9]; 280 nM in series [10]. Also, the IC50 in [5] (setting [12]) turned out to be 690 nM. In addition, in series [4], the Activity entry is reported as “Non-toxic”.
For `COc1cc(/C=C2\CC/C(=C\c3ccc(OCCCCN4CCCCC4)c(OC)c3)C2=O)ccc1OCCCCN1CCCCC1`, the selectivity ratio is more than 2.6 in series [1] and more than 4.3 in series [2]. Moreover, the IC50 in series [3] (setting [11]) came to 2850 nM; in [6], 490 nM; in [7], 320 nM; in series [8], 460 nM; in series [9], 550 nM; in series [10], 500 nM. In addition, in series [5] (setting [12]), the IC50 was 1740 nM. Moreover, the Activity result in series [4] is on record as “Non-toxic”.
`O=C1/C(=C/c2ccc(OCCCCN3CCCCC3)cc2)CCC/C1=C\c1ccc(OCCCCN2CCCCC2)cc1`: the IC50 in [6] came out at 3630 nM; in [7], 730 nM; in [8] it was 2110 nM; in series [9], 2540 nM; in series [10] it was 1530 nM.
Take `COc1cc(/C=C2\CC/C(=C\c3ccc(OCCCN(C)C)c(OC)c3)C2=O)ccc1OCCCN(C)C`: the selectivity ratio in [1] is more than 6; in [2], more than 7.9. Moreover, the IC50 worked out at 1530 nM in series [3] (setting [11]); 640 nM in [6]; 430 nM in [7]; 430 nM in series [8]; 200 nM in series [9]; 1500 nM in [10]. Further, the IC50 in series [5] (setting [12]) worked out at 1140 nM. In series [4], the Activity result is recorded as “Non-toxic”.
With `C[C@@H]1CC[C@H]2[C@@H](C)C(=O)O[C@@H]3O[C@@]4(C)CC[C@@H]1[C@]32OO4` [ARTEMISININ], the figures for the selectivity ratio in series [1] and in [2] were more than 800 and more than 470, respectively. In addition, the IC50 stood at 11 nM in [3] (setting [11]) and 19 nM in series [5] (setting [12]). The Activity result in series [4] is “Non-toxic”.
`O=C1/C(=C/c2ccc(OCCCCn3ccnc3)cc2)CC/C1=C\c1ccc(OCCCCn2ccnc2)cc1`: the selectivity ratio in [1] was more than 2.5; in [2] it was more than 4.3. In addition, the IC50 in series [3] (setting [11]) came to 3540 nM; in series [5] (setting [12]), 2040 nM. In [4], the Activity entry was “Non-toxic”.
For the molecule `COc1cc(/C=C2\CC/C(=C\c3ccc(OCCN(C)C)c(OC)c3)C2=O)ccc1OCCN(C)C`, the selectivity ratio in series [1] is more than 15.4; in [2] it was more than 21.6. For the same molecule, the IC50 in series [3] (setting [11]) is 620 nM; in series [6], 500 nM; in series [7] it was 30 nM; in series [8] it was more than 5000 nM; in series [9], more than 5000 nM; in [10], more than 5000 nM. In addition, in series [5] (setting [12]), the IC50 came to 440 nM. In addition, the Activity result in series [4] is “Non-toxic”.
Consider `COc1cc(/C=C2\CC/C(=C\c3ccc(OCCCCn4ccnc4C)c(OC)c3)C2=O)ccc1OCCCCn1ccnc1C`, for which the selectivity ratio in series [1] is more than 1.7; in series [2] it was more than 1.9. The IC50 in [3] (setting [11]) is 4480 nM; in series [5] (setting [12]), 4000 nM. Besides, the Activity result in series [4] was “Non-toxic”.
Regarding `COc1cc(/C=C2\CC/C(=C\c3ccc(OCCCCn4ccnc4)c(OC)c3)C2=O)ccc1OCCCCn1ccnc1`, the selectivity ratio in series [1] is more than 14; in series [2] it was more than 14.9. Further, the IC50 in series [3] (setting [11]) was 560 nM; in series [5] (setting [12]) it was 530 nM. Also, the Activity entry in series [4] is listed as “Non-toxic”.
With `COc1cc(/C=C2\CCC/C(=C\c3ccc(OCCCN4CCCCC4)c(OC)c3)C2=O)ccc1OCCCN1CCCCC1`, the IC50 in [6] is 1950 nM; in series [7], 550 nM; in series [8] it was 2050 nM; in series [9] it was 1650 nM; in [10] it was 6910 nM.
With `Cc1nccn1CCCCOc1ccc(/C=C2\CC/C(=C\c3ccc(OCCCCn4ccnc4C)cc3)C2=O)cc1`, the selectivity ratio is more than 6 in series [1] and more than 7.7 in [2]. Further, the IC50 in series [3] (setting [11]) came to 1410 nM; in series [5] (setting [12]), 1090 nM. In [4], the Activity result is given as “Non-toxic”.
Take `O=C1/C(=C/c2ccc(OCCCCN3CCOCC3)cc2)CCC/C1=C\c1ccc(OCCCCN2CCOCC2)cc1`: the IC50 result in series [3] and in series [5] was “Not Active” throughout. Also, the Activity entry in series [4] is “Non-toxic”.

These data come from ChEMBL document CHEMBL2311414, “Synthesis, antimalarial activity and cytotoxic potential of new monocarbonyl analogues of curcumin” (Bioorg Med Chem Lett, 2013).
